# Laboratory results taken from patent US20240287080A1 (IDEAYA Biosciences Inc., priority 2021, published 2024).
# Molecular target: T1, Pol theta (1-899) (Homo sapiens, UniProt O75417)
# T1 construct: Pol theta (1-899) (5 nM) in assay buffer
# Assay: Pol theta ATPase activity, NADH oxidation-coupled enzymatic assay (ATPase NADH coupling: Standard Screening: hPolQ)
# Assay type: biochemical
# Settings: Pol theta (1-899) 5 nM, NADH oxidation-coupled ATPase assay; compounds of Table 3
# In short: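 Rates of ATP hydrolysis taken from 60-min A340 traces of NADH oxidation via PK/LDH coupling, then fit four-parameter for IC50, Hill slope and max inhibition. Enzyme (5 nM, 1-899) and compounds preincubated 15 min before ATP 100 μM and 50-thymine ssDNA 300 nM (stock, equal volume added).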
# T1 sequence (O75417 1-899): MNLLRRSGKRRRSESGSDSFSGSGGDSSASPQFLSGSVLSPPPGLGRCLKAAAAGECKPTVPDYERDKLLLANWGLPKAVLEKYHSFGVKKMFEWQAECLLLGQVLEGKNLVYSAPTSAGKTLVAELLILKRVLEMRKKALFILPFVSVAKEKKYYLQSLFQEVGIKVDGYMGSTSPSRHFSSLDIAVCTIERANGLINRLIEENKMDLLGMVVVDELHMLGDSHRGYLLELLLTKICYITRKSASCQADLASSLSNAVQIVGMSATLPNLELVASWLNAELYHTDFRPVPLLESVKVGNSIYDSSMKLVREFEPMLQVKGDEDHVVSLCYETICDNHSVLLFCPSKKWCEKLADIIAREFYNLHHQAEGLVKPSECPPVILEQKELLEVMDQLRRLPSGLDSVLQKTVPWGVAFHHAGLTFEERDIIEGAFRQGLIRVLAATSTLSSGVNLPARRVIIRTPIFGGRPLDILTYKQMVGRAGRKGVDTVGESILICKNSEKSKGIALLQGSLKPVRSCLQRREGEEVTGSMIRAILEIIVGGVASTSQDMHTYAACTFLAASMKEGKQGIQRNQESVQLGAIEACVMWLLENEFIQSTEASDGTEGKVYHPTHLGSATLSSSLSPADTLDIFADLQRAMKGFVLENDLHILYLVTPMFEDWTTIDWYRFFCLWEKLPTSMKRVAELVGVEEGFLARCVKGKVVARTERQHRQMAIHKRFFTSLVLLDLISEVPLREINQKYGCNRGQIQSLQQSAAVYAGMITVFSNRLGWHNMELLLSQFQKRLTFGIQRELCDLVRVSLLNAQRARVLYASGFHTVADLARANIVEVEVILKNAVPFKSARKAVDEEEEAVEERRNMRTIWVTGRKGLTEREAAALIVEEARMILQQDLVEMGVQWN
row,SMILES,IC50
1,"COc1nnc(NC(=O)c2cnc(C)cc2-c2cnn(-c3ccccc3)c2C)s1 [Example 456, N-(5-methoxy-1,3,4-thiadiazol-2-yl)-6-methyl-4-(5-methyl-1-phenyl-1H-pyrazol-4-yl)pyridine-3-carboxamide]",1000 to 10000 nM
2,"COc1nnc(NC(=O)c2cnc(C)cc2-c2ccc3ccccc3c2)s1 [Example 363, N-(5-methoxy-1,3,4-thiadiazol-2-yl)-6-methyl-4-(naphthalen-2-yl)pyridine-3-carboxamide]",500 to 1000 nM
3,"COc1cnc(C)c(F)c1-c1cc(C)ncc1C(=O)Nc1nnc(OC2([C@@H]3CCOC3)CC2)s1 (single isomer, unassigned) [Example 293]",≤ 200 nM
4,"COc1nnc(NC(=O)c2cnc(C)cc2-c2cc(Cl)c([S+](C)[O-])cc2OC)s1 (single isomer, unassigned) [Example 298]",500 to 1000 nM
5,"COc1nnc(NC(=O)c2cnc(C)cc2-c2cccc(OC)c2F)s1 [Example 446, 4-(2-fluoro-3-methoxyphenyl)-N-(5-methoxy-1,3,4-thiadiazol-2-yl)-6-methylpyridine-3-carboxamide]",1000 to 10000 nM
6,"COc1nnc(NC(=O)c2cnc(C)cc2-c2cnc3[nH]ncc3c2)s1 [Example 357, N-(5-methoxy-1,3,4-thiadiazol-2-yl)-6-methyl-4-(1H-pyrazolo[3,4-b]pyridin-5-yl)nicotinamide]",1000 to 10000 nM
7,"COc1nnc(NC(=O)c2cnc(C)cc2-c2cc(C(F)(F)F)cc(C(F)(F)F)c2)s1 [Example 333, 4-[3,5-bis(trifluoromethyl)phenyl]-N-(5-methoxy-1,3,4-thiadiazol-2-yl)-6-methylpyridine-3-carboxamide]",1000 to 10000 nM
8,"COc1nnc(NC(=O)c2cnc(C)cc2-c2ccn(C)c(=O)c2)s1 [Example 351, N-(5-methoxy-1,3,4-thiadiazol-2-yl)-1′,6-dimethyl-2′-oxo-1′,2′-dihydro-[4,4′-bipyridine]-3-carboxamide]",1000 to 10000 nM
9,"COc1nnc(NC(=O)c2cnc(C)cc2-c2cccc3sccc23)s1 [Example 423, 4-(1-benzothiophen-4-yl)-N-(5-methoxy-1,3,4-thiadiazol-2-yl)-6-methylpyridine-3-carboxamide]",200 to 500 nM
10,"COc1nnc(NC(=O)c2cnc(C)cc2-c2cnccc2C(F)(F)F)s1 [Example 481, N-(5-methoxy-1,3,4-thiadiazol-2-yl)-6′-methyl-4-(trifluoromethyl)-[3,4′-bipyridine]-3′-carboxamide]",1000 to 10000 nM
11,"COc1nnc(NC(=O)c2cnc(C)cc2-c2cccc(C(=O)N(C)C)c2)s1 [Example 336, 4-[3-(dimethylcarbamoyl)phenyl]-N-(5-methoxy-1,3,4-thiadiazol-2-yl)-6-methylpyridine-3-carboxamide]",1000 to 10000 nM
12,"COc1nnc(NC(=O)c2cnc(C)cc2-c2ccc(C(F)(F)F)cc2)s1 [Example 355, N-(5-methoxy-1,3,4-thiadiazol-2-yl)-methyl4-(4-(trifluoromethyl)phenyl) nicotinamide]",1000 to 10000 nM
13,"COc1cnc(Cl)cc1-c1cc(C)ncc1C(=O)Nc1nnc(O[C@@H]2C[C@H](F)CN(C)C2)s1 [Example 267, 2′-chloro-N-(5-(((3R,5S)-5-fluoro-1-methylpiperidin-3-yl)oxy)-1,3,4-thiadiazol-2-yl)-5′-methoxy-6-methyl-[4,4′-bipyridine]-3-carboxamide]",≤ 200 nM
14,"COc1cnc(C)c(F)c1-c1cc(C)ncc1C(=O)Nc1nnc(O[C@H]2CCC[C@H](O)C2)s1 (single isomer, unassigned) [Example 256]",≤ 200 nM
15,"COc1nnc(NC(=O)c2ccc([N+](=O)[O-])cc2-c2cc(Cl)ncc2OC)s1 [Example 300, 2-(2-chloro-5-methoxypyridin-4-yl)-N-(5-methoxy-1,3,4-thiadiazol-2-yl)-4-nitrobenzamide]",≤ 200 nM
16,"COc1cnc(C)c(F)c1-c1cc(C)ncc1C(=O)Nc1nnc(O[C@@H]2C[C@@H]3C[C@H]2C[C@H]3O)s1 (single isomer, unassigned) [Example 254]",≤ 200 nM
17,"COc1nnc(NC(=O)c2cnc(C)cc2-c2cccc(C(=O)O)c2)s1 [Example 326, 3-(5-((5-methoxy-1,3,4-thiadiazol-2-yl)carbamoyl)-2-methylpyridin-4-yl)benzoic acid]",1000 to 10000 nM
18,"COc1nnc(NC(=O)c2cnc(C)cc2-c2ccc(S(C)(=O)=O)cc2)s1 [Example 371, N-(5-methoxy-1,3,4-thiadiazol-2-yl)-6-methyl-4-(4-(methylsulfonyl)phenyl)nicotinamide]",1000 to 10000 nM
19,"COc1nnc(NC(=O)c2ccncc2-c2cc(Cl)ncc2OC)s1 [Example 259, 2′-chloro-5′-methoxy-N-(5-methoxy-1,3,4-thiadiazol-2-yl)-[3,4′-bipyridine]-4-carboxamide]",≤ 200 nM
20,"COc1nnc(NC(=O)c2cnc(C)cc2-c2cccc(C(F)(F)F)c2)s1 [Example 359, N-(5-methoxy-1,3,4-thiadiazol-2-yl)-6-methyl-4-[3-(trifluoromethyl)phenyl]pyridine-3-carboxamide]",≤ 200 nM

# Same assay, conditions: Table 5; Pol theta (1-899) 5 nM, ATP, dT50 ssDNA
row,SMILES,IC50
1,"COc1nnc(NC(=O)c2cnc(C)cc2-c2ccnc3nccn23)s1 [Example 88, 4-(imidazo(1,2-a)pyrimidin-5-yl)-N-(5-methoxy-1,3,4-thiadiazol-2-yl)-6-methylnicotinamide]",1000 to 10000 nM
2,"COc1cnc(Cl)c(F)c1-c1cc(C)ncc1C(=O)Nc1nnc(O[C@H]2C[C@H](OC)C2)s1 (single isomer, unassigned) [Example 151, 2′-chloro-3′-fluoro-5′-methoxy-N-(5-((1r,3r)-3-methoxycyclobutoxy)-1,3,4-thiadiazol-2-yl)-6-methyl-(4,4′-bipyridine)-3-carboxamide]",≤ 200 nM
3,"Cc1cc(-c2cc(Cl)ncc2OC(F)F)c(C(=O)Nc2nnc(O[C@H]3CC[C@H](O)CC3)s2)cn1 [Example 203, 2′-chloro-5′-(difluoromethoxy)-N-(5-(((1r,4r)-4-hydroxycyclohexyl)oxy)-1,3,4-thiadiazol-2-yl)-6-methyl-(4,4′-bipyridine)-3-carboxamide]",≤ 200 nM
4,"COc1cnc(Cl)cc1-c1cc(C)ncc1C(=O)Nc1nnc(O[C@H]2CC[C@]3(CCO3)CC2)s1 (single isomer, unassigned) [Example 185, N-(5-(((4s, 7s)-1-oxaspiro(3.5)nonan-7-yl)oxy)-1,3,4-thiadiazol-2-yl)-2′-chloro-5′-methoxy-6-methyl-(4,4′-bipyridine)-3-carboxamide]",≤ 200 nM
5,COc1cnc(C)c(F)c1-c1cc(C)ncc1C(=O)Nc1nnc(OC2COC2)s1 [Example 204],≤ 200 nM
6,"COc1cnc(Cl)cc1-c1cc(C)ncc1C(=O)Nc1nnc(O[C@H]2CC[C@@H](OC)C2)s1 (racemic) [Example 150, rac-2′-chloro-5′-methoxy-N-(5-(((1R,3S)-3-methoxycyclopentyl)oxy)-1,3,4-thiadiazol-2-yl)-6-methyl-(4,4′-bipyridine)-3-carboxamide]",≤ 200 nM
7,"COc1cnc(Cl)cc1-c1cc(C)ncc1C(=O)Nc1nnc(O[C@H]2CCC[C@@H](OC)C2)s1 (single isomer, unassigned) [Example 145]",≤ 200 nM
8,COc1cnc(C)c(F)c1-c1cc(C)ncc1C(=O)Nc1nnc(O[C@@H]2CCOC2)s1 [Example 206],≤ 200 nM
9,"COc1cnc(Cl)cc1-c1cc(C)ncc1C(=O)Nc1nnc(O[C@H]2CC[C@H]([C@H](C)O)CC2)s1 (single isomer, unassigned) [Example 200]",≤ 200 nM
10,"COc1nnc(NC(=O)c2cnc(C)cc2-c2ccnc3ncnn23)s1 [Example 91, 4-((1,2,4)triazolo(1,5-a)pyrimidin-7-yl)-N-(5-methoxy-1,3,4-thiadiazol-2-yl)-6-methylnicotinamide]",1000 to 10000 nM
11,"COc1cnc(C)c(F)c1-c1cc(C)ncc1C(=O)Nc1nnc(O[C@@H]2COC3(CC3)C2)s1 (single isomer, unassigned) [Example 207]",≤ 200 nM
12,"COc1cnc(Cl)c(F)c1-c1cc(C)ncc1C(=O)Nc1nnc(O[C@H]2CC[C@@H](O)C2)s1 (racemic) [Example 170, rac-2′-chloro-3′-fluoro-N-(5-(((1R,3S)-3-hydroxycyclopentyl)oxy)-1,3,4-thiadiazol-2-yl)-5′-methoxy-6-methyl-(4,4′-bipyridine)-3-carboxamide]",≤ 200 nM
13,"COc1cnc(Cl)c(F)c1-c1cc(C)ncc1C(=O)Nc1nnc(O[C@@H]2COC3(CC3)C2)s1 (single isomer, unassigned) [Example 209]",≤ 200 nM
14,"COc1cnc(Cl)cc1-c1cc(C)ncc1C(=O)Nc1nnc(O[C@H]2C[C@@H](O)C2(C)C)s1 (single isomer, unassigned) [Example 183, 2′-chloro-N-(5-((1r,3s)-3-hydroxy-2,2-dimethylcyclobutoxy)-1,3,4-thiadiazol-2-yl)-5′-methoxy-6-methyl-(4,4′-bipyridine)-3-carboxamide]",≤ 200 nM
15,"COc1cnc(Cl)cc1-c1cc(C)ncc1C(=O)Nc1nnc(O[C@@H]2CCC23COC3)s1 (single isomer, unassigned) [Example 137]",≤ 200 nM
16,"COc1cnc(Cl)cc1-c1cc(C)ncc1C(=O)Nc1nnc(O[C@H]2CCO[C@@H]2C)s1 (racemic) [Example 93, rac-2′-Chloro-5′-methoxy-6-methyl-N-(5-(((2R,3S)-2-methyltetrahydrofuran-3-yl)oxy)-1,3,4-thiadiazol-2-yl)-(4,4′-bipyridine)-3-carboxamide]",≤ 200 nM
17,"COc1cnc(Cl)cc1-c1cc(C)ncc1C(=O)Nc1nnc(O[C@H]2COC3(CCCC3)C2)s1 (single isomer, unassigned) [Example 230]",≤ 200 nM

# Same assay, conditions: Table 5; values given as bound; Pol theta (1-899) 5 nM, ATP, dT50 ssDNA
row,SMILES,IC50
1,"COc1nnc(NC(=O)c2cn3c(C)cnc3cc2-c2c(F)cccc2OC)s1 [Example 120, 7-(2-fluoro-6-methoxyphenyl)-N-(5-methoxy-1,3,4-thiadiazol-2-yl)-3-methylimidazo(1,2-a)pyridine-6-carboxamide]",> 10000 nM
